Results taken from PubChem BioAssay (NCI).
Where “and” joins values, the source holds several entries; their conditions need not be identical. Equal values may be shown once.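 Grown in 96-well plates, cells were treated for 48 hours with each compound at five concentrations. Insufficient inhibition: endpoint recorded as highest concentration tested. GI50 = concentration required for 50% inhibition of growth. TGI is the concentration that stops growth completely.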 *1 amine or outer side, *2 acyl side, *3 side chain or, on linkers, in order; H or OH if unused. Where a SMILES comes first, the peptide text is derived from it. [ ]: non-standard residue; d: D form. X56 = CC[C@H](C)[C@H](OC(=O)[C@@H](C)[C@@H](CC)N[*:1])C(=O)[*:2]; X32 = C[C@H](N[*:1])C(=O)C(C)(C)C(=O)[*:2]; NMeY = CN[C@@H](Cc1ccc(O)cc1)C(=O)O; NMeL = CN[C@@H](CC(C)C)C(=O)O; NMeV = CN[C@H](C(=O)O)C(C)C

What was measured:
Assay in all cases: growth of human tumour cells (NCI), 48 h
U251 CNS = test system: U251 CNS
HT29 colon = test system: HT29 colon
HOP-62 NSCLC = test system: HOP-62 NSCLC
SN12C renal = test system: SN12C renal
HOP-92 NSCLC = test system: HOP-92 NSCLC
TK-10 renal = test system: TK-10 renal
786-0 renal = test system: 786-0 renal
EKVX NSCLC = test system: EKVX NSCLC
MDA-MB-231 breast = test system: MDA-MB-231 breast
HS 578T breast = test system: HS 578T breast

SMILES	TGI (U251 CNS)	TGI (HT29 colon)	TGI (HOP-62 NSCLC)	TGI (SN12C renal)	TGI (HOP-92 NSCLC)	TGI (TK-10 renal)	TGI (786-0 renal)	TGI (EKVX NSCLC)	GI50 (U251 CNS)	GI50 (HT29 colon)	GI50 (MDA-MB-231 breast)	TGI (MDA-MB-231 breast)	GI50 (HOP-62 NSCLC)	GI50 (SN12C renal)	GI50 (TK-10 renal)	GI50 (786-0 renal)	GI50 (HS 578T breast)	TGI (HS 578T breast)	GI50 (HOP-92 NSCLC)	GI50 (EKVX NSCLC)
NNC(=O)/C(NC(=O)c1ccccc1)=C(\N)c1ccc(Cl)cc1	> 100 µM	> 100 µM	> 100 µM	> 100 µM	> 100 µM	> 100 µM	> 100 µM	> 100 µM	–	–	–	–	–	–	–	–	–	–	–	–
O=c1c2ccccc2nc(-c2cccc(Cl)c2)n1NCC1(O)OCC(O)C(O)C1O (stereo not given)	> 100 µM	> 100 µM	–	> 100 µM	–	–	> 100 µM	> 100 µM	–	–	–	–	–	–	–	–	–	–	–	–
COc1cc2c(c(OC)c1OC)-c1ccc(OC)c(=O)cc1[C@@H](N(C)C=O)CC2	> 4.68 µM	> 100 µM	> 100 µM	> 100 µM	0.111 µM	> 100 µM	> 100 µM	> 100 µM	–	–	–	–	–	–	–	–	–	–	–	–
OCc1ccc(N(CCN2CCCC2)Cc2ccc(F)cc2)cc1Cl	32.4 µM	32.8 µM	42.1 µM	> 100 µM	–	34.8 µM	66 µM	–	15.5 µM	15.6 µM	16000 nM	38100 nM	17900 nM	34.8 µM	15000 nM	21000 nM	20900 nM	80.1 µM	–	–
O=c1c2cccnc2ncn1CCN1CCCC1	> 100 µM	> 100 µM	> 100 µM	> 100 µM	> 100 µM	> 100 µM	> 100 µM	> 100 µM	–	–	–	–	–	–	–	–	–	–	–	–
c1ccc(COC2(OCc3ccccc3)CC3OC2C2NN=NC32)cc1 (stereo not given)	32.6 µM	46.5 µM	> 100 µM	> 10 µM	40.8 µM	–	34.8 µM	–	–	–	–	–	–	–	–	–	–	–	–	–
Cc1ccc(Oc2ccc([N+](=O)[O-])cc2[N+](=O)[O-])c(C)c1	> 100 µM	59.3 µM	> 100 µM	> 100 µM	–	> 100 µM	> 100 µM	> 100 µM	–	–	–	–	–	–	–	–	–	–	–	–
Cc1cccc(C)c1NC(=O)CCc1n[nH]c(=S)o1	> 100 µM	> 100 µM	> 100 µM	> 100 µM	> 100 µM	> 100 µM	> 100 µM	> 100 µM	–	–	–	–	–	–	–	–	–	–	–	–
C=CCn1cc(C(=O)NC(=O)NCCCCCOC(=O)CCCCCCCCCCC(=O)OCCCCCNC(=O)NC(=O)c2cn(CC=C)c(=O)n(C)c2=O)c(=O)n(C)c1=O	> 100 µM	> 100 µM	> 100 µM	> 100 µM	> 100 µM	> 100 µM	> 100 µM	> 100 µM	–	–	–	–	–	–	–	–	–	–	–	–
NC(=O)c1ccc2nc3c(n2c1)C(=O)C(=O)c1ccccc1-3	0.928 µM	6.01 µM	2.8 µM	2.33 µM	3.33 µM	3.23 µM	2.99 µM	3.01 µM	0.296 µM	2.4 µM	850 nM	2320 nM	1390 nM	0.965 µM	1820 nM	1630 nM	–	–	1770 nM	1650 nM
S=c1nc(N2CCCCC2)ss1	38 µM	79.6 µM	64.6 µM	40.9 µM	36.7 µM	> 100 µM	48.1 µM	55.8 µM	–	–	–	–	–	–	–	–	–	–	–	–
COC(=O)C1C(OCc2ccccc2)C2CCC1(OC)C=C2C (stereo not given)	> 100 µM	> 100 µM	> 100 µM	> 100 µM	> 100 µM	> 100 µM	> 100 µM	> 100 µM	–	–	–	–	–	–	–	–	–	–	–	–
CC1C(=O)O[C@H]2C1CC[C@@]1(C)[C@H](O)CC[C@@]13C[C@]2(O)OO3 (stereo not given in full)	> 100 µM	> 100 µM	> 100 µM	> 100 µM	> 100 µM	> 100 µM	> 100 µM	–	–	–	–	–	–	–	–	–	–	–	–	–
COc1cc(/C=C(\OC(C)=O)c2ccc3c(c2)OCO3)cc(OC)c1OC	47.4 µM	61.9 µM	47.7 µM	88.1 µM	45.4 µM	> 100 µM	> 100 µM	54.9 µM	–	–	–	–	–	–	–	–	–	–	–	–
CC[C@H](C)[C@@H]1OC(=O)[C@@H](C)[C@@H](CC)NC(=O)[C@H](C)NC(=O)C(C)(C)C(=O)[C@H](C)NC(=O)[C@H](Cc2ccc(OC)cc2)N(C)C(=O)[C@H](C(C)C)N(C)C(=O)CNC(=O)[C@H](CC(C)C)N(C)C(=O)CNC1=O (cyclo(A[X56]G[NMeL]G[NMeV][NMeY](Me)[X32]))	1.08 µM and 0.15 µM	13.2 µM	0.175 µM	9.79 µM and 3.68 µM	0.238 µM and 0.0316 µM	0.299 µM and 0.0735 µM	0.48 µM and 0.233 µM	1.82 µM and 8.44 µM	–	–	–	792 nM	–	0.0433 µM	19.6 nM	67.5 nM	–	–	15.6 nM	66.8 nM
CC/C=C/c1cc2cc[nH]c2c2c1C(C)C[C@@H]2C (stereo not given in full)	51.2 µM	82.2 µM	–	35 µM	62.6 µM	> 100 µM	36.4 µM	> 100 µM	–	–	–	–	–	–	–	–	–	–	–	–

SMILES	TGI (U251 CNS)	TGI (HT29 colon)	TGI (HOP-62 NSCLC)	TGI (SN12C renal)	TGI (HOP-92 NSCLC)	TGI (TK-10 renal)	TGI (786-0 renal)	TGI (EKVX NSCLC)	GI50 (U251 CNS)	GI50 (HT29 colon)	GI50 (MDA-MB-231 breast)	TGI (MDA-MB-231 breast)	GI50 (HOP-62 NSCLC)	GI50 (SN12C renal)	GI50 (TK-10 renal)	GI50 (786-0 renal)	GI50 (HS 578T breast)	TGI (HS 578T breast)	GI50 (HOP-92 NSCLC)	GI50 (EKVX NSCLC)
O=C(c1ccc(Cl)cc1)c1ccc(OCCSCCCCCCCCCCSCCOc2ccc(C(=O)c3ccc(Cl)cc3)cc2)cc1	> 100 µM	> 100 µM	> 100 µM	> 100 µM	> 100 µM	> 100 µM	> 100 µM	> 100 µM	–	–	–	–	–	–	–	–	–	–	–	–
Cn1cnc([N+](=O)[O-])c1Sc1nnnn1-c1ccccc1	26 µM	31.9 µM	> 100 µM	29.7 µM	13 µM	32.4 µM	30.5 µM	29.6 µM	–	–	–	–	–	–	–	–	–	–	–	–
CC1(O)CCC2(C#N)CCC1C2O (stereo not given)	> 100 µM	> 100 µM	> 100 µM	> 100 µM	–	> 100 µM	> 100 µM	> 100 µM	–	–	–	–	–	–	–	–	–	–	–	–
N#CC1C2CCC3(CC2CCN1C(=O)c1ccccc1)OCCO3 (stereo not given)	> 100 µM	> 100 µM	> 100 µM	> 100 µM	> 100 µM	> 100 µM	> 100 µM	> 100 µM	–	–	–	–	–	–	–	–	–	–	–	–
Cc1cc2cn3c4cccnc4[nH]c(=O)c3c2cc1C	–	–	2.85 µM	–	2.65 µM	3.91 µM	3.33 µM	–	–	–	–	–	1500 nM	–	2270 nM	1870 nM	1850 nM	4.38 µM	1240 nM	–
Cc1c2c(cc3c(=O)ccn(CCN(C)C)c13)c(=O)ccn2CCN(C)C	23 µM	–	29.1 µM	33.3 µM	31.3 µM	51.3 µM	17.5 µM	29 µM	–	–	–	–	–	–	–	–	–	–	–	–
Clc1ccc(Nc2ccnc(NCCCNc3ccnc4cc(Cl)ccc34)n2)cc1	2.91 µM	2.83 µM	2.94 µM	–	2.85 µM	3.41 µM	3.33 µM	–	1.48 µM	1.29 µM	–	–	1480 nM	–	1940 nM	1730 nM	1730 nM	3.8 µM	1160 nM	–
C1=Nc2ccccc2C=Nc2ccccc2C=Nc2ccccc2C=Nc2ccccc21.[Cl-].[Pt+2]	27.5 µM	52.5 µM	45.6 µM	> 100 µM	48.7 µM	> 100 µM	97.1 µM	> 100 µM	10.5 µM	22.3 µM	–	–	15100 nM	28.4 µM	45700 nM	32200 nM	–	–	19300 nM	37500 nM
COc1cc2c(cn1)[nH]c1ccccc12	> 100 µM	> 100 µM	> 100 µM	> 100 µM	> 100 µM	> 100 µM	> 100 µM	> 100 µM	–	–	–	–	–	–	–	–	–	–	–	–
COc1cc(Nc2nc3ccc(C(F)(F)F)cc3nc2-c2ccccc2)cc(OC)c1OC	> 100 µM	5.31 µM	> 100 µM	> 100 µM	6.17 µM	> 100 µM	> 100 µM	79.7 µM	–	–	–	–	–	–	–	–	–	–	–	–
N#CC1CC2(C(=O)C1=O)c1ccccc1-c1ccccc12 (stereo not given)	> 100 µM	> 100 µM	> 100 µM	> 100 µM	–	> 100 µM	> 100 µM	> 100 µM	–	–	–	–	–	–	–	–	–	–	–	–
Cc1ccc(Sc2sc(-c3ccccc3)nc2[P+](c2ccccc2)(c2ccccc2)c2ccccc2)cc1	1.4 µM	1.17 µM	1.18 µM	1.1 µM	0.563 µM	1.64 µM	1.45 µM	0.932 µM	0.214 µM	0.237 µM	251 nM	943 nM	296 nM	0.323 µM	336 nM	381 nM	–	–	186 nM	266 nM
CSc1ncnc2c1CCN2	–	> 100 µM	> 100 µM	> 100 µM	> 100 µM	> 100 µM	> 100 µM	> 100 µM	–	> 100 µM	–	–	–	–	> 100000 nM	> 100000 nM	–	–	75000 nM	> 100000 nM
C1COCCOCCOCCOCCO1.CC(=O)[CH-]C(C)=O.CC(=O)[CH-]C(C)=O.CC(=O)[CH-]C(C)=O.[V]	52.8 µM	37.4 µM	–	62.3 µM	44.7 µM	52 µM	12.9 µM	–	20.6 µM	19.1 µM	–	–	–	21.3 µM	14100 nM	2960 nM	–	–	11200 nM	–
O=C(NCc1ccncc1)C1COc2cc(-c3cc(=O)c4ccccc4o3)ccc2O1 (stereo not given)	> 100 µM	> 100 µM	> 100 µM	> 100 µM	> 100 µM	> 100 µM	> 100 µM	> 100 µM	–	–	–	–	–	–	–	–	–	–	–	–
